Measured values: PubChem BioAssay AID1745844 (Carcinogenic Potency Database (CPDB), 2022)
Activity calls are given as the source filed them. No rule for the calls is given here.

Tested on: rodent lifetime carcinogenesis bioassay, tumor incidence TD50
Experiment: chronic cancer bioassays in animals – CPDB, compiled studies (AID 1745844)

CC(=O)Nc1ccc2c(c1)C(=O)c1ccccc1-2
TD50 (rat, strain Buffalo, females, in feed, site: ear duct, lesion: squamous-cell carcinoma, dosed 86 weeks, study length 86 weeks): 32 mg/kg/day
TD50 (rat, strain Buffalo, females, in feed, site: liver, lesion: hepatoma, dosed 86 weeks, study length 86 weeks): 102 mg/kg/day
TD50 (rat, strain Buffalo, females, in feed, site: mammary gland, lesion: adenocarcinoma, dosed 86 weeks, study length 86 weeks): 6.17 mg/kg/day

CC(C(O)c1ccccc1)N(C)N=O (stereo not given)
TD50 (rat, strain Sprague-Dawley, males, by gavage, site: any site (literature study), lesion: several types, types named in the paper, dosed 104 weeks, study length 104 weeks): 40 mg/kg/day
TD50 (rat, strain Sprague-Dawley, males, by gavage, site: forestomach, lesion: papilloma, dosed 104 weeks, study length 104 weeks): 239 mg/kg/day
TD50 (rat, strain Sprague-Dawley, males, by gavage, site: forestomach, lesion: squamous-cell carcinoma, dosed 104 weeks, study length 104 weeks): 740 mg/kg/day
TD50 (rat, strain Sprague-Dawley, males, by gavage, site: liver, lesion: hepatocellular carcinoma, dosed 104 weeks, study length 104 weeks): 138 mg/kg/day
TD50 (rat, strain Sprague-Dawley, males, by gavage, site: liver, lesion: several types, types named in the paper, dosed 104 weeks, study length 104 weeks): 95.2 mg/kg/day
TD50 (rat, strain Sprague-Dawley, males, by gavage, site: lung, lesion: several types, types named in the paper, dosed 104 weeks, study length 104 weeks): 217 mg/kg/day

ClC1=C(Cl)[C@]2(Cl)[C@H]3[C@H]([C@@H]4C=C[C@H]3C4)[C@@]1(Cl)C2(Cl)Cl
carcinogen call (mouse, strain B6C3F1, females, in feed, site: any site (literature study), lesion: several types, types named in the paper, dosed 80 weeks, study length 90 weeks): negative (inactive)
TD50 (mouse, strain B6C3F1, females, in feed, site: lung, lesion: alveolar/bronchiolar adenoma + alveolar/bronchiolar carcinoma, dosed 80 weeks, study length 90 weeks): 9.02 mg/kg/day
TD50 (mouse, strain B6C3F1, males, in feed, site: any site (literature study), lesion: several types, types named in the paper, dosed 80 weeks, study length 90 weeks): 1.01 mg/kg/day
TD50 (mouse, strain B6C3F1, males, in feed, site: liver, lesion: hepatocellular adenoma + hepatocellular carcinoma + neoplastic nodule, dosed 80 weeks, study length 90 weeks): 0.741 mg/kg/day
TD50 (mouse, strain B6C3F1, males, in feed, site: liver, lesion: hepatocellular carcinoma, dosed 80 weeks, study length 89 weeks): 0.861 mg/kg/day
TD50 (mouse, strain B6C3F1, males, in feed, site: liver, lesion: hepatocellular carcinoma, dosed 80 weeks, study length 90 weeks): 0.741 mg/kg/day
TD50 (mouse, strain B6C3F1, males, in feed, site: lung, lesion: alveolar/bronchiolar adenoma + alveolar/bronchiolar carcinoma, dosed 80 weeks, study length 90 weeks): 3.2 mg/kg/day
TD50 (mouse, strain C3HeB/Fe, both sexes, in feed, site: any site (literature study), lesion: benign tumor, dosed 104 weeks, study length 104 weeks): 4.25 mg/kg/day
TD50 (mouse, strain C3HeB/Fe, both sexes, in feed, site: liver, lesion: hepatocellular adenoma, dosed 104 weeks, study length 104 weeks): 4.41 mg/kg/day
TD50 (mouse, strain C3HeB/Fe, both sexes, in feed, site: liver, lesion: hepatoma, dosed 104 weeks, study length 104 weeks): 3.45 mg/kg/day
TD50 (mouse, strain C3HeB/Fe, both sexes, in feed, site: lung, lesion: carcinoma, dosed 104 weeks, study length 104 weeks): 129 mg/kg/day
carcinogen call (rat, strain Not specified, females, in feed, site: any site (literature study), lesion: one or several types, types not named, dosed 104 weeks, study length 104 weeks): negative (inactive)
carcinogen call (rat, strain Not specified, males, in feed, site: any site (literature study), lesion: one or several types, types not named, dosed 104 weeks, study length 104 weeks): negative (inactive)
carcinogen call (rat, strain Osborne-Mendel, both sexes, in feed, site: any site (literature study), lesion: several types, types named in the paper, dosed 104 weeks, study length 104 weeks): positive
TD50 (rat, strain Osborne-Mendel, both sexes, in feed, site: lung, lesion: lymphosarcoma, dosed 104 weeks, study length 104 weeks): 42.3 mg/kg/day
TD50 (rat, strain Osborne-Mendel, females, in feed, site: adrenal gland, lesion: cortical adenoma, dosed 80 weeks, study length 109 weeks): 3.12 mg/kg/day (inactive)
TD50 (rat, strain Osborne-Mendel, females, in feed, site: any site (literature study), lesion: one or several types, types not named, dosed 104 weeks, study length 104 weeks): 1.69 mg/kg/day
carcinogen call (rat, strain Osborne-Mendel, females, in feed, site: any site (literature study), lesion: several types, types named in the paper, dosed 80 weeks, study length 111 weeks): negative (inactive)
carcinogen call (rat, strain Osborne-Mendel, females, in feed, site: any site (literature study), lesion: several types, types named in the paper, dosed 108 weeks, study length 108 weeks): negative (inactive)
carcinogen call (rat, strain Osborne-Mendel, females, in feed, site: any site (literature study), lesion: several types, types named in the paper, dosed 111 weeks, study length 117 weeks): negative (inactive)
TD50 (rat, strain Osborne-Mendel, females, in feed, site: liver, lesion: hepatocellular adenoma + hepatocellular carcinoma + neoplastic nodule, dosed 80 weeks, study length 111 weeks): 466 mg/kg/day
carcinogen call (rat, strain Osborne-Mendel, females, in feed, site: liver, lesion: one or several types, types not named, dosed 104 weeks, study length 104 weeks): negative (inactive)
carcinogen call (rat, strain Osborne-Mendel, females, in feed, site: liver, lesion: one or several types, types not named, dosed 108 weeks, study length 108 weeks): negative (inactive)
carcinogen call (rat, strain Osborne-Mendel, females, in feed, site: liver, lesion: one or several types, types not named, dosed 111 weeks, study length 117 weeks): negative (inactive)
TD50 (rat, strain Osborne-Mendel, females, in feed, site: lymphoreticular system, lesion: one or several types, types not named, dosed 104 weeks, study length 104 weeks): 4.35 mg/kg/day (inactive)
TD50 (rat, strain Osborne-Mendel, males, in feed, site: any site (literature study), lesion: several types, types named in the paper, dosed 74 weeks, study length 111 weeks): 16.4 mg/kg/day (inactive)
TD50 (rat, strain Osborne-Mendel, males, in feed, site: any site (literature study), lesion: several types, types named in the paper, dosed 108 weeks, study length 108 weeks): 4.21 mg/kg/day (inactive)
carcinogen call (rat, strain Osborne-Mendel, males, in feed, site: any site (literature study), lesion: several types, types named in the paper, dosed 124 weeks, study length 134 weeks): negative (inactive)
carcinogen call (rat, strain Osborne-Mendel, males, in feed, site: liver, lesion: hemangioma, dosed 124 weeks, study length 134 weeks): negative (inactive)
carcinogen call (rat, strain Osborne-Mendel, males, in feed, site: liver, lesion: one or several types, types not named, dosed 108 weeks, study length 108 weeks): negative (inactive)
carcinogen call (rat, strain Sprague-Dawley, females, in feed, site: liver, lesion: one or several types, types not named, dosed 104 weeks, study length 104 weeks): negative (inactive)

CNC(=O)ON=C(SC)C(=O)N(C)C
carcinogen call (mouse, strain Charles River CD1, females, in feed, site: any site (literature study), lesion: several types, types named in the paper, dosed 104 weeks, study length 104 weeks): negative (inactive)
carcinogen call (mouse, strain Charles River CD1, males, in feed, site: any site (literature study), lesion: several types, types named in the paper, dosed 104 weeks, study length 104 weeks): negative (inactive)
carcinogen call (rat, strain Charles River CD (Sprague-Dawley), females, in feed, site: liver, lesion: hepatocellular hyperplastic nodule, dosed 104 weeks, study length 104 weeks): negative (inactive)
carcinogen call (rat, strain Charles River CD (Sprague-Dawley), males, in feed, site: liver, lesion: one or several types, types not named, dosed 104 weeks, study length 104 weeks): negative (inactive)

S=C=Nc1ccccc1
TD50 (mouse, strain B6AKF1, females, oral dosing, site: any site (literature study), lesion: several types, types named in the paper, dosed 76 weeks, study length 76 weeks): 39.4 mg/kg/day (inactive)
TD50 (mouse, strain B6AKF1, females, oral dosing, site: liver, lesion: hemangioma, dosed 76 weeks, study length 76 weeks): 138 mg/kg/day (inactive)
carcinogen call (mouse, strain B6AKF1, females, oral dosing, site: lung, lesion: adenoma, dosed 76 weeks, study length 76 weeks): negative (inactive)
carcinogen call (mouse, strain B6AKF1, males, oral dosing, site: any site (literature study), lesion: several types, types named in the paper, dosed 76 weeks, study length 76 weeks): negative (inactive)
carcinogen call (mouse, strain B6AKF1, males, oral dosing, site: liver, lesion: hepatoma, dosed 76 weeks, study length 76 weeks): negative (inactive)
carcinogen call (mouse, strain B6AKF1, males, oral dosing, site: lung, lesion: adenoma, dosed 76 weeks, study length 76 weeks): negative (inactive)
carcinogen call (mouse, strain B6C3F1, females, oral dosing, site: any site (literature study), lesion: one or several types, types not named, dosed 76 weeks, study length 76 weeks): negative (inactive)
carcinogen call (mouse, strain B6C3F1, females, oral dosing, site: liver, lesion: hepatoma, dosed 76 weeks, study length 76 weeks): negative (inactive)
carcinogen call (mouse, strain B6C3F1, females, oral dosing, site: lung, lesion: several types, types named in the paper, dosed 76 weeks, study length 76 weeks): negative (inactive)
TD50 (mouse, strain B6C3F1, males, oral dosing, site: any site (literature study), lesion: several types, types named in the paper, dosed 76 weeks, study length 76 weeks): 40.2 mg/kg/day (inactive)
TD50 (mouse, strain B6C3F1, males, oral dosing, site: liver, lesion: hepatoma, dosed 76 weeks, study length 76 weeks): 128 mg/kg/day (inactive)
TD50 (mouse, strain B6C3F1, males, oral dosing, site: lung, lesion: adenoma, dosed 76 weeks, study length 76 weeks): 128 mg/kg/day (inactive)

[O]=[Nb](=[O])[OH]
carcinogen call (mouse, strain Charles River CD1, both sexes, in drinking water, site: any site (literature study), lesion: malignant tumor, dosed 135 weeks, study length 135 weeks): negative (inactive)
carcinogen call (mouse, strain Charles River CD1, both sexes, in drinking water, site: any site (literature study), lesion: one or several types, types not named, dosed 135 weeks, study length 135 weeks): negative (inactive)
carcinogen call (mouse, strain Charles River CD1, both sexes, in drinking water, site: liver, lesion: one or several types, types not named, dosed 135 weeks, study length 135 weeks): negative (inactive)
carcinogen call (mouse, strain Charles River CD1, both sexes, in drinking water, site: lung, lesion: one or several types, types not named, dosed 135 weeks, study length 135 weeks): negative (inactive)

C[C@]12C=CC(=O)C=C1CC[C@@H]1[C@@H]2[C@@H](O)C[C@@]2(C)[C@H]1CC[C@]2(O)C(=O)CO
TD50 (rat, strain Charles River CD (Sprague-Dawley), males, in drinking water, site: liver, lesion: hepatocellular adenoma, dosed 104 weeks, study length 104 weeks): 2.16 mg/kg/day
TD50 (rat, strain Charles River CD (Sprague-Dawley), males, in drinking water, site: liver, lesion: hepatocellular carcinoma, dosed 104 weeks, study length 104 weeks): 6.58 mg/kg/day
TD50 (rat, strain Charles River CD (Sprague-Dawley), males, in drinking water, site: liver, lesion: several types, types named in the paper, dosed 104 weeks, study length 104 weeks): 1.53 mg/kg/day
TD50 (rat, strain Sprague-Dawley, females, by gavage, site: any site (literature study), lesion: benign tumor, dosed 78 weeks, study length 104 weeks): 1.96 mg/kg/day (inactive)
carcinogen call (rat, strain Sprague-Dawley, females, by gavage, site: any site (literature study), lesion: malignant tumor, dosed 78 weeks, study length 104 weeks): negative (inactive)
